Source: patent US9321773B2, “Compounds” (Respivert Ltd, priority 2009, dated 2016)
“Also recorded” adds a separate entry of the source. Read-outs that look alike come from different tables or passages of the source.

Experiments:
[1] = test system: H2O2 induced pAkt in D-U937 cells; assay: PI3Kδ Cell Based Assay (H2O2 induced pAkt); conditions: Homo sapiens, dU937
In short: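 Read-out is the pAkt/total Akt signal ratio, measured with anti-pAkt and anti-pan-Akt antibodies after H2O2 stimulation. Cells were U937 monocytes given PMA (100 ng/mL) for 48 to 72 hr. IC50 values fitted from compound serial dilutions.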

[2] = test system: LPS induced neutrophilia in mouse lung; assay: LPS-Induced Neutrophilia in the Mouse; format: in vivo; conditions: for % Inhibition of neutrophils in BAL at the dose indicated (mg/mL) (0.05): 0.05 mg/mL intra-tracheal; for % Inhibition of neutrophils in BAL at the dose indicated (mg/mL) (0.05) / % Inhibition of neutrophils in BAL at the dose indicated (mg/mL) (0.2) / % Inhibition of neutrophils in BAL at the dose indicated (mg/mL) (1.0): 2 hr before LPS challenge; for % Reduction of inhibition at 8 hr compared with 2 hr: 0.2 mg/mL dose; for % Reduction of inhibition at 8 hr compared with 2 hr / % Inhibition at 0.2 mg/mL dose at time indicated (hr) (2) / % Inhibition at 0.2 mg/mL dose at time indicated (hr) (8): mouse lung; for % Inhibition of neutrophils in BAL at the dose indicated (mg/mL) (0.2): 0.2 mg/mL intra-tracheal; for % Inhibition at 0.2 mg/mL dose at time indicated (hr) (2): dosed 2 hr before LPS challenge; for % Inhibition at 0.2 mg/mL dose at time indicated (hr) (8): dosed 8 hr before LPS challenge; for % Inhibition of neutrophils in BAL at the dose indicated (mg/mL) (1.0): 1.0 mg/mL intra-tracheal; for inhibition of LPS-induced neutrophilia (neutrophil influx into the lung), in words: intra-tracheal dosing before LPS challenge
Procedure: Non-fasted mice were dosed by the intra-tracheal route with either vehicle, or the test substance at the time points (“pre-dose”) indicated with respect to the start of LPS treatment. At T=0, mice were placed into an exposure chamber and exposed to LPS. Eight hr after LPS challenge, animals were anesthetized, the trachea cannulated and BALF extracted by infusing and withdrawing 1 mL of PBS into the lungs via a tracheal catheter. Total and differential white cell counts in the BALF samples were measured using a Neubaur haemocytometer. Cytospin smears of the BALF samples were prepared by centrifugation at 200 rpm for 5 min at RT and stained using a DiffQuik stain system (Dade Behring). Cells were counted using oil immersion microscopy.

[3] = test system: PMA-differentiated U937 cells; assay: MTT Assay (cell viability); format: cell-based, Human; conditions: percentage loss of cell viability; for Cell Viability MTT Assay in D-U937 cells at 4 hr: 4 hr in 5% FCS; for Cell Viability MTT Assay in D-U937 cells at 24 hr: 24 hr in 10% FCS
In short: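 Differentiated U937 cells treated with compound for 4 hr (5% FCS) or 24 hr (10% FCS), then given MTT for 1 hr; formazan dissolved in DMSO and absorbance read at 550 nm. Viability loss expressed as % versus 0.5% DMSO vehicle.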

recombinant PI3 kinase γ = recombinant PI3 kinase γ (Homo sapiens (Human), UniProt P48736); assay: Enzyme Inhibition Assay (HTRF PI3K enzyme assay, TR-FRET); format: biochemical
In short: (§1)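 TR-FRET readout after 15-18 hr at RT with biotinylated PIP3, GST-tagged GRP1 PH domain and europium/APC fluorophores; product PIP3 displaces the tracer and lowers the signal. Beforehand, compound and PIP2 were reacted for 2 hr at RT with human recombinant PI3Kα, δ or γ.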

recombinant PI3 kinase δ = recombinant PI3 kinase δ (Homo sapiens (Human), UniProt O00329); assay: as above; format: biochemical
In short: as §1

recombinant PI3 kinase α = recombinant PI3 kinase α (Homo sapiens (Human), UniProt P42336); assay: as above; format: biochemical
In short: as §1

[4] = test system: cigarette smoke-induced pulmonary macrophage and neutrophil influx; assay: Cigarette Smoke Model; format: in vivo, mouse; conditions: A/J mice; for anti-inflammatory activity (BALF neutrophils and alveolar macrophages), monotherapy: twice daily for 3 days after final smoke exposure
Procedure: A/J mice (males, 5 weeks old) were exposed to cigarette smoke (4% cigarette smoke, diluted with compressed air) for 30 min/day for 11 days using a Tobacco Smoke Inhalation Experiment System for small animals (Model SIS-CS; Sibata Scientific Technology, Tokyo, Japan). Test substances were given intra-nasally (35 μL of solution in 50% DMSO/PBS) and therapeutically twice daily for 3 days after the final cigarette smoke exposure. Twelve hr after the last dosing, animals were anesthetized, the trachea cannulated and bronchoalveolar lavage fluid (BALF) was collected. The numbers of alveolar macrophages and neutrophils were determined by FACS analysis (EPICS® ALTRA II, Beckman Coulter, Inc., Fullerton, Calif., USA) using anti-mouse MOMA2 antibody (macrophage) or anti-mouse 7/4 antibody (neutrophil).

[5] = Stereochemical analysis by chiral stationary phase HPLC (atropisomerism); format: physicochemical; conditions: chiral stationary phase HPLC (16 different conditions for the examples)
Procedure: Each of these mobile phase are compatible with the column packings referred to above, providing sixteen different solvent and stationary phase permutations. Modifiers such as triethylamine (0.1%), formic acid (0.1%) may be added to improve the resolution
Semi-preparative Chiral Stationary Phase LC-UV was performed on a Gilson preparative modular system using a Daicel Chiralpak AD semi-prep column ([…], 20×250 mm) and a flow rate of 18 mL/min eluting with an isocratic method over 20 min using […] heptane:IPA and 0.1% triethylamine employing an injection volume of 1.0 mL.

[6] = activity range, D-U937 cells, read-out: Cellular Activity IC50 values (H2O2 induced pAkt D-U937 Cells)
[7] = read-out: Cellular Activity IC50 values (H2O2 induced pAkt (nM) D-U937 Cells)
[8] = activity range, read-out: PI3 Kinase Inhibition IC50 values at stated Isozyme γ
[9] = read-out: PI3 Kinase Inhibition IC50 values at stated Isozyme (nM) γ
[10] = activity range, read-out: PI3 Kinase Inhibition IC50 values at stated Isozyme δ
[11] = read-out: PI3 Kinase Inhibition IC50 values at stated Isozyme (nM) δ
[12] = activity range, read-out: PI3 Kinase Inhibition IC50 values at stated Isozyme α
[13] = read-out: PI3 Kinase Inhibition IC50 values at stated Isozyme (nM) α

Chain of recombinant PI3 kinase δ (O00329 whole entry): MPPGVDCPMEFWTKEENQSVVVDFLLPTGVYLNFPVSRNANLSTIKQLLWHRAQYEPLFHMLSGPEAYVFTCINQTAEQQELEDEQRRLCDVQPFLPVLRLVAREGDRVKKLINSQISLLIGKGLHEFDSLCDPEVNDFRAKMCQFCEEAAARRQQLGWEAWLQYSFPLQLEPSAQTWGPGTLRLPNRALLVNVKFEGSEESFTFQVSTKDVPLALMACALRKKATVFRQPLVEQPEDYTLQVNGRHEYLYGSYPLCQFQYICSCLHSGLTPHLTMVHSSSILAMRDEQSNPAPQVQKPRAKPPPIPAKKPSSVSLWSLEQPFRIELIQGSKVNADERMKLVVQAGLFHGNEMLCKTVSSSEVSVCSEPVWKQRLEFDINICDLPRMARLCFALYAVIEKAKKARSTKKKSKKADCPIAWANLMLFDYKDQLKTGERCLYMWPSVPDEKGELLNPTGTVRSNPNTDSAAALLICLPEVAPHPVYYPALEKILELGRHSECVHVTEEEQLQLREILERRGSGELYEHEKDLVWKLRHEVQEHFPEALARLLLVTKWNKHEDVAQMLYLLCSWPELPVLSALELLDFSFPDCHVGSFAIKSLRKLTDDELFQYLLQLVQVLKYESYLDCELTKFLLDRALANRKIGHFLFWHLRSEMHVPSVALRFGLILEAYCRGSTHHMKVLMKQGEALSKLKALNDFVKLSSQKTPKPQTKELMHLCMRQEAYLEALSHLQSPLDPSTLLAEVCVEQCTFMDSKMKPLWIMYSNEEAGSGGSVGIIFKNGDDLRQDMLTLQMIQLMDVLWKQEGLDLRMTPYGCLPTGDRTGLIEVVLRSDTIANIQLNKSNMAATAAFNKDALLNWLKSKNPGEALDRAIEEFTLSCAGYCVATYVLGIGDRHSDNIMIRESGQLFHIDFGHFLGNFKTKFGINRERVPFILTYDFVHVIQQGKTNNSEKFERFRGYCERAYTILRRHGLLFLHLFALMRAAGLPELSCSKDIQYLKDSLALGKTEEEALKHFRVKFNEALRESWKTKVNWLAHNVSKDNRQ
Chain of recombinant PI3 kinase δ (P27986 whole entry partner): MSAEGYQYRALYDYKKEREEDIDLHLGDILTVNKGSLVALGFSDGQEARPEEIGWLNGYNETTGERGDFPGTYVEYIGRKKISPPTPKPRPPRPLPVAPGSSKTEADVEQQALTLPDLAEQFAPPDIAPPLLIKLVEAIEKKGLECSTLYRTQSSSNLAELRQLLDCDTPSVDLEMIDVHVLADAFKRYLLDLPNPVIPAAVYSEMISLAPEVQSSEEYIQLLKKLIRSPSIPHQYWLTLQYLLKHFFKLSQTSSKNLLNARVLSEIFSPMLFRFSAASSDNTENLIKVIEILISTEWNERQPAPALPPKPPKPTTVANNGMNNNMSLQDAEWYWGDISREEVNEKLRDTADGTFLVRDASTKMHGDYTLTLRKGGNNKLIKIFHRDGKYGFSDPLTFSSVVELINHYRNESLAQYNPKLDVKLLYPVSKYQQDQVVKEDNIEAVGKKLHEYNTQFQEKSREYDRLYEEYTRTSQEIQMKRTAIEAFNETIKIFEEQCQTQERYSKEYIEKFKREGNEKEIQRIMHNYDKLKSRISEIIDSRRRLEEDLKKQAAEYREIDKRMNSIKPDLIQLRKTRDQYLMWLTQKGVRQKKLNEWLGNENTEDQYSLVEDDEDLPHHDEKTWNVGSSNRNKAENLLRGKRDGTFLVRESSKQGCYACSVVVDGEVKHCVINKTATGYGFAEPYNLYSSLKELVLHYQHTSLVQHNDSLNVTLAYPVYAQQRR
Chain of recombinant PI3 kinase α (P42336 whole entry): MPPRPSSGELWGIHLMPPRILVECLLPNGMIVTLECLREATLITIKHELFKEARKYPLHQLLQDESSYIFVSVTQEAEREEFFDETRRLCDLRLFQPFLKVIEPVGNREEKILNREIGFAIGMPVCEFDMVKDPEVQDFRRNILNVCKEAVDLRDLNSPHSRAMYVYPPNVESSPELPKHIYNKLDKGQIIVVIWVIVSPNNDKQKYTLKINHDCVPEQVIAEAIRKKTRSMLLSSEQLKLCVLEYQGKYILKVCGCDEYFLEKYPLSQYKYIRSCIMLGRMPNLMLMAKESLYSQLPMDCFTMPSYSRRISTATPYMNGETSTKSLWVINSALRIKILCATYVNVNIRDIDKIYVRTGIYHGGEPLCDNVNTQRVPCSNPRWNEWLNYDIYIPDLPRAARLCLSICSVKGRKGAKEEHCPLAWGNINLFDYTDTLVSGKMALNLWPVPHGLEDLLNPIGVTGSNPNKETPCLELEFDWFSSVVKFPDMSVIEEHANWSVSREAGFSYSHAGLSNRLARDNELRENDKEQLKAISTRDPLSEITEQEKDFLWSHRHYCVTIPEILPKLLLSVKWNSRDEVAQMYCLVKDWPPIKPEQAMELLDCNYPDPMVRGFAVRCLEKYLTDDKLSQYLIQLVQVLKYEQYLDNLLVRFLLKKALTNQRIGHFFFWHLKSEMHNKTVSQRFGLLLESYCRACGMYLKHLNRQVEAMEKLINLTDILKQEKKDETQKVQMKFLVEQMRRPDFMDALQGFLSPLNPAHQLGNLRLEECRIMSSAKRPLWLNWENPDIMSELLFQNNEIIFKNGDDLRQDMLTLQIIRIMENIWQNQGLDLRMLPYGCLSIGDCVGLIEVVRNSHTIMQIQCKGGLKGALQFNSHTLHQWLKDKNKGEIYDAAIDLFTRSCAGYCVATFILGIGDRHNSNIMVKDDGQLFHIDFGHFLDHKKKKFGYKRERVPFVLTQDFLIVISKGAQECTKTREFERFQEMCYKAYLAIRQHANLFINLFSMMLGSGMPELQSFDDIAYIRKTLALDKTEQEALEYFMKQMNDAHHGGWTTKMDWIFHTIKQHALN
Chain of recombinant PI3 kinase α (P27986 whole entry partner): as the sequence (P27986 whole entry partner) above
Chain of recombinant PI3 kinase γ (P48736 whole entry, the tested form may be a part): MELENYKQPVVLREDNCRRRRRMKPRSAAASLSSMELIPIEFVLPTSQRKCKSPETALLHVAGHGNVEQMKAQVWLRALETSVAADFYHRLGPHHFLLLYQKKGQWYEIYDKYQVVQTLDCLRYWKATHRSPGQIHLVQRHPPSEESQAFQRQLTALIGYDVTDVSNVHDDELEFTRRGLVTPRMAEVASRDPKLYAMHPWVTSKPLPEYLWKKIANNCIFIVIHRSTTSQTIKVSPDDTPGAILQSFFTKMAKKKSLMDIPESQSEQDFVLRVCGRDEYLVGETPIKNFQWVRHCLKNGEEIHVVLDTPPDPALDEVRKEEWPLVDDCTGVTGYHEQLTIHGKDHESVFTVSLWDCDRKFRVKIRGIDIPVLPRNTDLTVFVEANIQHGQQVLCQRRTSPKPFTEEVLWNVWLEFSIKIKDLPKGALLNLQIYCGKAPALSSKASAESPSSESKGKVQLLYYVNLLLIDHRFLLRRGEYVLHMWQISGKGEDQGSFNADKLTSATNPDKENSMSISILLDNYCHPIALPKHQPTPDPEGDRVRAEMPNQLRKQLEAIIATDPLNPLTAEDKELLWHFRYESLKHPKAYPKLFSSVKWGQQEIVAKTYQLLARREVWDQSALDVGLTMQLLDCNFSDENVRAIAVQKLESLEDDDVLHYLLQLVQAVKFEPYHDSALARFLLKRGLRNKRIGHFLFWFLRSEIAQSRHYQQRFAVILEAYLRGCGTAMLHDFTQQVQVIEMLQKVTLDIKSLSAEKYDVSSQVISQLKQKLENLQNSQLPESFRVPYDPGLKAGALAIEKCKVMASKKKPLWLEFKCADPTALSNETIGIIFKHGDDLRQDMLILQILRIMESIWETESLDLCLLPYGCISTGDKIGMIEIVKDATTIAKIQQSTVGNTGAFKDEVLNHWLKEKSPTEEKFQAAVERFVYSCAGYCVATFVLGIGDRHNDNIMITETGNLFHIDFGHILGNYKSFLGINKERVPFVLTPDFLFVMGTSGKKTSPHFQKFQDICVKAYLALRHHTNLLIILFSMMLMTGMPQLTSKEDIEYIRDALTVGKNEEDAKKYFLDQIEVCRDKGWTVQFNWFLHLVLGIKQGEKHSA

SMILES	IC50 [1, 6] [nM]	inhibition of LPS-induced neutrophilia (neutrophil influx into the lung), in words ([2]; mouse)	Cell Viability MTT Assay in D-U937 cells at 4 hr [3]	Cell Viability MTT Assay in D-U937 cells at 24 hr [3]	IC50 (recombinant PI3 kinase γ; [8]) [nM]	IC50 (recombinant PI3 kinase γ; [9]) [nM]	IC50 (recombinant PI3 kinase δ; [10]) [nM]	IC50 (recombinant PI3 kinase α; [12]) [nM]	atropisomerism by chiral stationary phase HPLC [5]	also measured
Nc1ncnc2c1c(-c1ccc(O)cc1)nn2Cc1nc2cccc(C#CCCCC(=O)N3CCOCC3)c2c(=O)n1Cc1ccccc1Cl [Example 5, 2-((4-Amino-3-(4-hydroxyphenyl)-1H-pyrazolo[3,4-d]pyrimidin-1-yl)methyl)-3-(2-chlorobenzyl)-5-(6-morpholino-6-oxohex-1-yn-1-yl)quinazolin-4(3H)-one]	< 10	dose dependent inhibition	− (− <30%)	− (− <30%)	< 50	16	< 50	< 50	–	IC50 [1, 7]: 0.58 nM; % Inhibition of neutrophils in BAL at the dose indicated (mg/mL) (0.05) ([2]; mouse): 4.8%; % Reduction of inhibition at 8 hr compared with 2 hr [2]: 44%; % Inhibition of neutrophils in BAL at the dose indicated (mg/mL) (0.2) ([2]; mouse): 37.7%; % Inhibition at 0.2 mg/mL dose at time indicated (hr) (2) [2]: 37.7%; % Inhibition at 0.2 mg/mL dose at time indicated (hr) (8) [2]: 21.2%; % Inhibition of neutrophils in BAL at the dose indicated (mg/mL) (1.0) ([2]; mouse): 58.5%; level of anti-inflammatory activity at the 8 hr time point relative to value 2 hr after drug treatment ([2]; same dose, LPS challenge, mouse): over half of its original value; IC50 (recombinant PI3 kinase δ; [11]): 20 nM; IC50 (recombinant PI3 kinase α; [13]): 20 nM
CCC(=O)O[C@]1(C(=O)SCF)[C@H](C)C[C@H]2[C@@H]3C[C@H](F)C4=CC(=O)C=C[C@]4(C)[C@@]3(F)[C@@H](O)C[C@@]21C [fluticasone propionate, reference compound]	–	–	–	–	–	–	–	–	–	anti-inflammatory activity (BALF neutrophils and alveolar macrophages), monotherapy [4]: lacks effect as monotherapy
C[C@@H]1C[C@H]2[C@@H]3CCC4=CC(=O)C=C[C@]4(C)[C@@]3(F)[C@@H](O)C[C@]2(C)[C@@]1(O)C(=O)CO [dexamethasone, reference compound]	–	–	–	–	–	–	–	–	–	anti-inflammatory activity (BALF neutrophils and alveolar macrophages) ([4]; 0.3-10 mg/kg, p.o.): inactive
Nc1ncnc2c1c(-c1ccc(O)cc1)nn2Cc1nc2cccc(C#CCCCC(=O)O)c2c(=O)n1Cc1ccccc1Cl [Example 4, 6-(2-((4-Amino-3-(4-hydroxyphenyl)-1H-pyrazolo[3,4-d]pyrimidin-1-yl)methyl)-3-(2-chlorobenzyl)-4-oxo-3,4-dihydroquinazolin-5-yl)hex-5-ynoic acid]	–	dose dependent inhibition	− (− <30%)	− (− <30%)	< 50	20	–	–	–	% Inhibition of neutrophils in BAL at the dose indicated (mg/mL) (0.05) ([2]; mouse): 3.2%; % Reduction of inhibition at 8 hr compared with 2 hr [2]: 73%; % Inhibition of neutrophils in BAL at the dose indicated (mg/mL) (0.2) ([2]; mouse): 47.2%; % Inhibition at 0.2 mg/mL dose at time indicated (hr) (2) [2]: 47.2%; % Inhibition at 0.2 mg/mL dose at time indicated (hr) (8) [2]: 12.9%; % Inhibition of neutrophils in BAL at the dose indicated (mg/mL) (1.0) ([2]; mouse): 64.6%
C#Cc1cccc2nc(Cn3nc(-c4cccc(O)c4)c4c(N)ncnc43)n(Cc3ccccc3Cl)c(=O)c12 [Example 1, 2-((4-Amino-3-(3-hydroxyphenyl)-1H-pyrazolo[3,4-d]pyrimidin-1-yl)methyl)-3-(2-chlorobenzyl)-5-ethynylquinazolin-4(3H)-one]	< 10	Inhibition of LPS-induced neutrophilia	− (− <30%)	− (− <30%)	50 to 1000	234	< 50	50 to 1000	no evidence for atropisomerism was observed	IC50 [1, 7]: 1.1 nM; anti-inflammatory activity when co-administered with fluticasone propionate ([4]; co-administered with fluticasone propionate at a dose which lacks effect as monotherapy): marked enhancement of anti-inflammatory activity; anti-inflammatory activity (BALF neutrophils and alveolar macrophages), monotherapy [4]: inhibition; also recorded: possesses anti-inflammatory activity; IC50 (recombinant PI3 kinase δ; [11]): 7 nM; IC50 (recombinant PI3 kinase α; [13]): 199 nM
C#Cc1cccc2nc(Cn3nc(-c4cccc(O)c4)c4c(N)ncnc43)n(Cc3ccc(Cl)cc3)c(=O)c12 [Example 25, 2-((4-Amino-3-(3-hydroxyphenyl)-1H-pyrazolo[3,4-d]pyrimidin-1-yl)methyl)-3-(4-chlorobenzyl)-5-ethynylquinazolin-4(3H)-one]	< 10	–	− (− <30%)	− (− <30%)	50 to 1000	–	< 50	50 to 1000	no evidence for atropisomerism was observed	–
C#Cc1cccc2nc(Cn3nc(-c4ccc(O)cc4)c4c(N)ncnc43)n(Cc3ccc(S(C)(=O)=O)cc3)c(=O)c12 [Example 20, 2-((4-Amino-3-(4-hydroxyphenyl)-1H-pyrazolo[3,4-d]pyrimidin-1-yl)methyl)-5-ethynyl-3-(4-(methylsulfonyl)benzyl)quinazolin-4(3H)-one]	< 10	–	− (− <30%)	− (− <30%)	50 to 1000	–	< 50	50 to 1000	no evidence for atropisomerism was observed	–
C#Cc1cccc2nc(Cn3nc(-c4ccc(O)cc4)c4c(N)ncnc43)n(Cc3c(F)cccc3F)c(=O)c12 [Example 34, 2-((4-Amino-3-(4-hydroxyphenyl)-1H-pyrazolo[3,4-d]pyrimidin-1-yl)methyl)-3-(2,6-difluorobenzyl)-5-ethynylquinazolin-4(3H)-one]	< 10	–	− (− <30%)	− (− <30%)	50 to 1000	–	< 50	50 to 1000	no evidence for atropisomerism was observed	–
C#Cc1cccc2nc(Cn3nc(-c4ccc(O)cc4)c4c(N)ncnc43)n(Cc3ccc(Cl)cc3)c(=O)c12 [Example 18, 2-((4-Amino-3-(4-hydroxyphenyl)-1H-pyrazolo[3,4-d]pyrimidin-1-yl)methyl)-3-(4-chlorobenzyl)-5-ethynyl quinazolin-4(3H)-one]	< 10	–	− (− <30%)	− (− <30%)	50 to 1000	–	< 50	50 to 1000	no evidence for atropisomerism was observed	–
C#Cc1cccc2nc(Cn3nc(-c4cccc(O)c4)c4c(N)ncnc43)n(Cc3cccc(S(C)(=O)=O)c3)c(=O)c12 [Example 23, 2-((4-Amino-3-(3-hydroxyphenyl)-1H-pyrazolo[3,4-d]pyrimidin-1-yl)methyl)-5-ethynyl-3-(3-(methylsulfonyl)benzyl)quinazolin-4(3H)-one]	< 10	–	− (− <30%)	− (− <30%)	50 to 1000	–	< 50	50 to 1000	no evidence for atropisomerism was observed	–
